The subject of test [1] is aorta rings of AT2−/− mice. As to the kind of experiment: Vasorelaxation in precontracted aorta rings of AT2-/- mice. The test is classed as cell-based. As to conditions: precontracted with fenilefrine 0.1 μM. As for the experimental part: This example describes the vasodilating effect of Ala^1-Ang-(1-7) and Ang-(1-7)—which is independent of the AT2 receptor—on the aorta of mice with genetic deletion of AT2 (AT2−/−) receptor.
The original rings of the descending thoracic aorta (2 mm), free from adipose tissue and connective tissue, were incubated in gasified solution (95% O2 and 5% CO2) of Krebs-Henseleit (mmol/L): NaCl 110.8, KCl 5.9, NaHCO3 25.0, MgSO4 1.07, CaCl2 2.49, NaH2PO4 2.33 and glucose 11.51, under a temperature of 37° C. and a 0.5 g tension, being equilibrated for 1 hour. The functional presence of endothelium was tested by its relaxing capacity produced by acetylcholine [ACh] (10 μM) on vessels precontracted with fenilefrine (0.3 μM). Only the vessels showing relaxation above 70% of extended contraction produced by fenilefrine were taken into account. Data on mechanical activity were isometrically obtained by using an amplified strength transducer (Model TMB-4; World Precision Instruments, Inc. Sarasota, Fla., USA) and converted to digital signal (AD16JR; World Precision Instruments, Inc.). […]
The aorta rings of AT2−/− mice were precontracted (approx. 1.0 g of tension) with a felinefrine submaximum concentration (0.1 μM). […] The vasodilating effects of Ala^1-Ang-(1-7) and Ang-(1-7) were expressed as a relaxation percentage relative to the maximum contraction induced by fenilefrine. […]

Test [2] deals with T1, angiotensin converter enzyme (ACE) (Rattus norvegicus, UniProt P47820).
T1 construct: from tissue; host or cells: plasma of Wistar rats
T1 sequence (P47820 36-1238 limits assumed): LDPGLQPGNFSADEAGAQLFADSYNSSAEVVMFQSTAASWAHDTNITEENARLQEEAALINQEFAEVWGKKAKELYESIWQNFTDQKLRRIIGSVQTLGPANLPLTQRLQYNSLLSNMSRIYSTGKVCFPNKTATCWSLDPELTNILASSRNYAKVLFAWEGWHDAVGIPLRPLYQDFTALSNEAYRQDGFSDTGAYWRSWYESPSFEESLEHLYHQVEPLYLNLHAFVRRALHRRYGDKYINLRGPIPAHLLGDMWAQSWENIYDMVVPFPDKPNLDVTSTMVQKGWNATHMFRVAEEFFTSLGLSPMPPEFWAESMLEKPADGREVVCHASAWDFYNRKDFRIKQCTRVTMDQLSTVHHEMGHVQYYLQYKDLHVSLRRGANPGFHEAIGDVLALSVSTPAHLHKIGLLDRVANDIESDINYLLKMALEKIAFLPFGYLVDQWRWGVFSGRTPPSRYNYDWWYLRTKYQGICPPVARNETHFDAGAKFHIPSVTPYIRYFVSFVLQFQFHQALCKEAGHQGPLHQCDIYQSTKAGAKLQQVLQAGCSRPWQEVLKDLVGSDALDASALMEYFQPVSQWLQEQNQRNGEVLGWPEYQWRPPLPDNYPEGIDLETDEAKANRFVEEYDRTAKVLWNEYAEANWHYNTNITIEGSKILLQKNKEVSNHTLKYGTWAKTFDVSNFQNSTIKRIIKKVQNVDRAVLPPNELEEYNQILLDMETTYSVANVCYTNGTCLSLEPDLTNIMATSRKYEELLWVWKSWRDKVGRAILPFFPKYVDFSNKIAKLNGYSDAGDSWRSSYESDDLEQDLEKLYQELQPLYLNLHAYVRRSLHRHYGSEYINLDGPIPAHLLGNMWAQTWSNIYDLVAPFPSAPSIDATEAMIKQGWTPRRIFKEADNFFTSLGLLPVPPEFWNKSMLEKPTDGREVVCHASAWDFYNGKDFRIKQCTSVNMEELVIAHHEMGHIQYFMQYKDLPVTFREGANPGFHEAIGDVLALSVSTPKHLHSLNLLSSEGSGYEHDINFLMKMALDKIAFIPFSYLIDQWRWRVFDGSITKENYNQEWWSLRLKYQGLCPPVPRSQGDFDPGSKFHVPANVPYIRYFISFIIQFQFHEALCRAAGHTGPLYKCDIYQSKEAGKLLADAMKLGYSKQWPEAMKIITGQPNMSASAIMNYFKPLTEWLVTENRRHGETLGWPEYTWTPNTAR
As to the kind of experiment: Plasmatic ACE activity, fluorimetric method with Hip-His-Leu substrate. The test is classed as biochemical, Wistar rats. As to conditions: Wistar rat plasma. As for the experimental part: The plasmatic activity of ACE was measured by the fluorimetric method using Hip-His-Leu as substrate, as previously described (Santos, R. A. S. et al., Hypertension, 7:244-52, (1985)). Plasma aliquots (10 μL) of Wistar rats were incubated with a […] solution containing a 1 mM substrate (Hip-His-Leu) and 0.4 M of sodium borate, 0.9 M NaCl (pH=8.3) for 15 minutes at 37° C. The reaction was halted by adding 1.2 mL of NaOH at 0.34 M and […] of orthoftaldehyde (20 mg/mL in methanol). After 10 minutes at environment temperature, […] of HCl at 3 N was added. Later on, after a 5-minute 800×g centrifugation, the floating solution fluorescence was measured (a 365 nm excitation and a 495 nm emission). The blank was prepared by inverting the addition order of plasma and NaOH. A 0.5 to 20 nmol curve, containing the product (His-Leu) resulting of the substrate break (Hip-His-Leu) by ACE plasmatic activity, was prepared in each assay. In order to test the inhibition effect of ACE by the PEPTIDEs Ang-(1-7) and Ala^1-Ang-(1-7), 3.3×10^−7 or 3.3×10^−6 M of each PEPTIDE was added before the plasma addition. […] The percentage of enzymatic activity inhibition was estimated in function of the maximum activity obtained.

For “Asp^1-Arg^2-Val^3-Tyr^4-Ile^5-His^6-Pro^7 [Ang-(1-7)]”, the vasodilating effect result in test [1] was “preserved”. For the same substance, the ACE inhibition was found to be 85.8% in test [2] (peptide 3.3×10^−6 M) and 42.4% in test [2] (peptide 3.3×10^−7 M).

On to “Ala^1-Arg^2-Val^3-Tyr^4-Ile^5-His^6-Pro^7 [Ala^1-Ang-(1-7)]”, for which the vasodilating effect entry in test [1] was “preserved”. Also, the ACE inhibition in test [2] (peptide 3.3×10^−6 M) is on record as 98.3%; in test [2] (peptide 3.3×10^−7 M), 76.3%.
